In BindingDB's records for doi:10.1016/j.ejmech.2017.11.032 (International Institute of Molecular and Cell Biology, 2018):
pIC50, pKd, pKi: −log10 of the molar value.

Assay: Inhibition of bacterial C-terminal His6-tagged ErmC' (unknown origin) expressed in Escherichia coli BL21(DE3) assessed as decrease in rRNA methylation using [methyl-3H]AdoMet measured after 1 hr

| SMILES | pIC50 |
| --- | --- |
| CC(=O)Nc1nc(C)c(-c2csc(Nc3cccc(O)c3)n2)s1 | 3.52 |
| O=C(c1csc(Nc2ncccn2)n1)N1CCN(c2ccc(C(F)(F)F)cn2)CC1 | 3.96 |
| O=C(c1c[nH]c(=O)[nH]1)N1CCN(c2ccc(C(F)(F)F)cn2)CC1 | 4.00 |
| Cc1cccc(Nc2nc(C(=O)N3CCN(c4ccc(C(F)(F)F)cn4)CC3)cs2)n1 | 3.94 |
| O=C(NCc1cccc(Cn2ccnc2)c1)c1cc2ccccc2o1 | 3.30 |
| Cn1cnnc1-c1cccc(NC(=O)Cc2cccc(F)c2)c1 | 3.30 |
| O=C(NCCOc1ccc2c(c1)OCO2)c1ccc2ccccc2n1 | 3.30 |
| CCCc1cc(C(=O)Nc2cccc(OCc3ccncc3)c2)[nH]n1 | 3.60 |
| Nc1nc(N)nc(CSc2nnc(NCc3ccccc3)s2)n1 | < 3.30 |
| O=C(Nc1nccs1)c1cc(-c2ccccn2)nc2ccccc12 | < 3.60 |
| O=C(NC1CCN(c2nc3ccccc3s2)CC1)c1ccncc1 | < 3.30 |
| O=C(c1cc(Cl)c[nH]1)N1CCN(c2ncc(C(F)(F)F)cc2Cl)CC1 | < 3.30 |
| FC(F)(F)c1ccc(N2CCN(Cc3c[nH]c(-c4ccccc4)n3)CC2)nc1 | < 3.30 |
| O=C(NCCSc1ccccc1)c1ccc(-n2cncn2)cc1 | 3.60 |
| FC(F)(F)c1ccc(N2CCN(Cc3cn4ccccc4n3)CC2)nc1 | < 3.30 |
| O=C(CSc1nc2cccnc2[nH]1)Nc1nccs1 | < 3.30 |
| CC(=O)Nc1ccc(S(=O)(=O)NCCc2ccncc2)cc1 | 3.30 |

Assay: Inhibition of bacterial C-terminal His6-tagged ErmC' expressed in Escherichia coli BL21(DE3) assessed as decrease of protein binding to [gamma-33P]ATP-labeled 32-nt oligonucleotide after 30 mins by filter binding assay

| SMILES | pKd |
| --- | --- |
| O=C(c1csc(Nc2ncccn2)n1)N1CCN(c2ccc(C(F)(F)F)cn2)CC1 | 7.40 |
| Cc1cccc(Nc2nc(C(=O)N3CCN(c4ccc(C(F)(F)F)cn4)CC3)cs2)n1 | 5.98 |

Assay: Non-competitive inhibition of bacterial C-terminal His6-tagged ErmC' (unknown origin) expressed in Escherichia coli BL21(DE3) in presence of [methyl-3H]SAM

| SMILES | pKi |
| --- | --- |
| O=C(c1c[nH]c(=O)[nH]1)N1CCN(c2ccc(C(F)(F)F)cn2)CC1 | 3.83 |

Assay: Competitive inhibition of bacterial C-terminal His6-tagged ErmC' expressed in Escherichia coli BL21(DE3) in presence of [methyl-3H]SAM

| SMILES | pKi |
| --- | --- |
| CC(=O)Nc1nc(C)c(-c2csc(Nc3cccc(O)c3)n2)s1 | 3.45 |
| O=C(c1csc(Nc2ncccn2)n1)N1CCN(c2ccc(C(F)(F)F)cn2)CC1 | 3.96 |

Assay: Non-competitive inhibition of bacterial C-terminal His6-tagged ErmC' (unknown origin) expressed in Escherichia coli BL21(DE3) in presence of [methyl-3H]SAM
Remark: another data set of the same source

| SMILES | pIC50 |
| --- | --- |
| CC(=O)c1c[nH]c(C(=O)N2CCN(c3ccc(C(F)(F)F)cn3)CC2)c1 | < 3.30 |
| O=C(c1n[nH]c(=O)[nH]1)N1CCN(c2ccc(C(F)(F)F)cn2)CC1 | < 3.30 |
| O=C(c1cn(-c2ccccc2)nn1)N1CCN(c2ccc(C(F)(F)F)cn2)CC1 | 3.30 |
| O=C(c1cnn[nH]1)N1CCN(c2ccc(C(F)(F)F)cn2)CC1 | < 3.30 |
| O=C(c1cc(C2CC2)n[nH]1)N1CCN(c2ccc(C(F)(F)F)cn2)CC1 | < 3.30 |
| O=C(Nc1cccc(NCc2ccncc2)c1)c1ccccc1Cl | < 3.30 |
| O=C(Nc1ccn(CCc2ccncc2)n1)Nc1ccc(F)cc1F | 3.30 |
| O=C(Nc1ccncc1)c1ccn(COc2ccc(F)c(Cl)c2)n1 | < 3.30 |
| Cc1occc1C(=O)Nc1nc(CC(=O)Nc2ccccc2)cs1 | 3.60 |
| O=C(Cc1cccc(F)c1)Nc1cccc(-c2ccn[nH]2)c1 | 3.30 |
| O=C(Cc1cn2ccsc2n1)Nc1cccc(N2CCCC2=O)c1 | < 3.30 |
| O=C(Nc1cccc(NC(=O)c2cccc(F)c2)c1)c1ccncc1 | 3.60 |
| CN(C)c1ccc(CNC(=O)c2ccc(-n3cncn3)cc2)cc1 | < 3.30 |
| COc1ccc(C(=O)CSc2nc(O)cc(=O)[nH]2)cc1 | < 3.30 |
| O=C(CSc1nnc2c(n1)[nH]c1ccccc12)Nc1ccccn1 | < 3.60 |
| Nn1c(SCc2nc3ccccc3[nH]2)nnc1-c1ccncc1 | 3.30 |

Assay: Inhibition of bacterial C-terminal His6-tagged ErmC' expressed in Escherichia coli ER2566 assessed as decrease in rRNA methylation using [methyl-3H]AdoMet measured after 1 hr

| SMILES | pIC50 |
| --- | --- |
| COC(=O)c1sc2ccccc2c1OS(=O)(=O)c1ccc(Cl)cc1 | 3.60 |
| Cc1ccc(Sc2cc(C)c(C#N)c(Sc3ccc(C)cc3)n2)cc1 | 3.74 |
| O=C1c2ccccc2C(=O)N1CN(CCCn1ccnc1)CN1C(=O)c2ccccc2C1=O | 3.52 |
| Clc1ccccc1Cn1nnc2c(N/N=C/c3cccnc3)ncnc21 | 3.60 |

Assay: Inhibition of bacterial ErmC' assessed as decrease in rRNA methylation preincubated for 15 mins followed by S-adenosyl-L-[methyl3H]methionine addition measured after 2 hrs by scintillation counting method

| SMILES | pIC50 |
| --- | --- |
| Cc1nccc(C(=O)Nc2cc(NC(=O)c3ccccc3)ccc2C)n1 | 4.74 |
